In patent US12202818B2, “Compounds and methods for CD73 modulation and indications therefor” (Opna Bio SA, priority 2020, dated 2025):

Columns and labels:
[1] = biological target: T1, Human CD73 (amino acid residues 27-549) (Homo sapiens, UniProt P21589); experiment: CD73 enzymatic assay (luciferase-based indirect assay, CellTiter-Glo); assay type: biochemical; conditions: 0.4 nM CD73, 150 μM AMP, 1 hour at room temperature
T1 construct: Human CD73 (amino acid residues 27-549); His tag (N); made in house; host or cells: E. coli
T1 sequence (P21589 27-549): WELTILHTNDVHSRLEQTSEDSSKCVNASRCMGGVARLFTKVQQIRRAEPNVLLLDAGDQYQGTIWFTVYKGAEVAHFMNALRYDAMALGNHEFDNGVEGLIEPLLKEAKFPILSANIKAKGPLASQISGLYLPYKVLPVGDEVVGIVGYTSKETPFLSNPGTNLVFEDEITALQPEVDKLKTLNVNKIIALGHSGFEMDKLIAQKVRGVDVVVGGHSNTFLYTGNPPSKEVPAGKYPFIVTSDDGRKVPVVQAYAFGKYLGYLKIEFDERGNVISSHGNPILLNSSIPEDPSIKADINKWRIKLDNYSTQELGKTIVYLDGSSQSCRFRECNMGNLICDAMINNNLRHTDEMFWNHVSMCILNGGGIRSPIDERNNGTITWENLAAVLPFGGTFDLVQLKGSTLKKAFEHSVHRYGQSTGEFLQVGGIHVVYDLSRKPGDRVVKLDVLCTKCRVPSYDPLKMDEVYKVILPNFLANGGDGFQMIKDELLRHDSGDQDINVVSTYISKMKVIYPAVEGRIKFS
Procedure, shortened: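 Luciferase-coupled readout: AMP left after CD73 turnover suppresses CellTiter-Glo signal (1 μM ATP final, 30 min RT). Reaction beforehand: 150 μM AMP, 0.4 nM E. coli-made His-tagged CD73 residues 27-549, test compound, HEPES pH 7.4 with Tween-20, 1 h RT. % inhibition fitted nonlinearly for IC50.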

[2] = biological target: T2, human CD73 (Homo sapiens, UniProt P21589); experiment: Inhibitor activity against CD73 in cell based assay (CD73 expressing CHO-K1 cells); conditions: CHO-K1 cells expressing human CD73, 150 μM AMP, 4 hours of incubation; read-out: CHO-K1 CELL_VARIANT: CD73 IC50
T2 construct: expressed in transfected cells
T2 sequence (P21589 27-549): T1 sequence (P21589 27-549)
Procedure, shortened: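 AMP (150 μM) was added alongside 8 titrated compound doses (maximum 10 μM, 1:3 steps) to CHO-K1 cells stably expressing human CD73. After 4 h, supernatant AMP was measured indirectly with CellTiter-Glo 2.0 plus 1 μM ATP (30 min, RT). % inhibition versus high and low controls was fitted nonlinearly for IC50.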

| Structure (SMILES) | IC50 [1] | IC50 [2] |
| --- | --- | --- |
| CCCS(=O)(=O)Nc1ccc(-c2ccnc(O[C@@H]3CCN(c4cn[nH]c(=O)c4Cl)C3)c2)c(F)c1 [P-0204, (R)-N-(4-(2-((1-(5-chloro-6-oxo-1,6-dihydropyridazin-4-yl)pyrrolidin-3-yl)oxy)pyridin-4-yl)-3-fluorophenyl)propane-1-sulfonamide] | 0.001 to 10 µM | 0.001 to 10 µM |
| CC(C)C(=O)Nc1ccc(-c2ccnc(O[C@@H]3CCN(c4cn[nH]c(=O)c4Cl)C3)c2)c(F)c1 [P-0205, (R)-N-(4-(2-((1-(5-chloro-6-oxo-1,6-dihydropyridazin-4-yl)pyrrolidin-3-yl)oxy)pyridin-4-yl)-3-fluorophenyl)isobutyramide] | 0.001 to 10 µM | 0.001 to 10 µM |
| O=C(Nc1ccc(-c2ccnc(O[C@@H]3CCN(c4cn[nH]c(=O)c4Cl)C3)c2)c(F)c1)C1CCCC1 [P-0206, (R)-N-(4-(2-((1-(5-chloro-6-oxo-1,6-dihydropyridazin-4-yl)pyrrolidin-3-yl)oxy)pyridin-4-yl)-3-fluorophenyl)cyclopentane-carboxamide] | 0.001 to 10 µM | 0.001 to 10 µM |
| O=c1[nH]ncc(N2CC[C@@H](Oc3cc(-c4c(F)cc(S(=O)(=O)NC5CC5)cc4F)ccn3)C2)c1Cl [P-0207, (R)-4-(2-((1-(5-chloro-6-oxo-1,6-dihydropyridazin-4-yl)pyrrolidin-3-yl)oxy)pyridin-4-yl)-N-cyclopropyl-3,5-difluorobenzenesulfonamide] | 0.001 to 10 µM | 0.001 to 10 µM |
| CCCNS(=O)(=O)c1cc(F)c(-c2ccnc(O[C@@H]3CCN(c4cn[nH]c(=O)c4Cl)C3)c2)c(F)c1 [P-0208, (R)-4-(2-((1-(5-chloro-6-oxo-1,6-dihydropyridazin-4-yl)pyrrolidin-3-yl)oxy)pyridin-4-yl)-3,5-difluoro-N-propylbenzenesulfonamide] | 0.001 to 10 µM | 0.001 to 10 µM |
| Cc1c(-c2ccnc(O[C@@H]3CCN(c4cn[nH]c(=O)c4Cl)C3)c2)cnn1C [P-0209, (R)-4-chloro-5-(3-((4-(1,5-dimethyl-1H-pyrazol-4-yl)pyridin-2-yl)oxy)pyrrolidin-1-yl)pyridazin-3(2H)-one] | 0.001 to 10 µM | 0.001 to 10 µM |
| Cc1cc(NS(=O)(=O)C2CC2)ccc1-c1ccnc(O[C@@H]2CCN(c3cn[nH]c(=O)c3Cl)C2)c1 [P-0210, (R)-N-(4-(2-((1-(5-chloro-6-oxo-1,6-dihydropyridazin-4-yl)pyrrolidin-3-yl)oxy)pyridin-4-yl)-3-methylphenyl)cyclopropane-sulfonamide] | 0.001 to 10 µM | 0.001 to 10 µM |
| O=C(Nc1ccc(-c2ccnc(O[C@@H]3CCN(c4cn[nH]c(=O)c4Cl)C3)c2)c(F)c1)NC1CC1 [P-0211, (R)-1-(4-(2-((1-(5-chloro-6-oxo-1,6-dihydropyridazin-4-yl)pyrrolidin-3-yl)oxy)pyridin-4-yl)-3-fluorophenyl)-3-cyclopropylurea] | 0.001 to 10 µM | 0.001 to 10 µM |
| O=C(Nc1ccc(-c2ccnc(O[C@@H]3CCN(c4cn[nH]c(=O)c4Cl)C3)c2)c(F)c1)C1CCC1 [P-0212, (R)-N-(4-(2-((1-(5-chloro-6-oxo-1,6-dihydropyridazin-4-yl)pyrrolidin-3-yl)oxy)pyridin-4-yl)-3-fluorophenyl)cyclobutane-carboxamide] | 0.001 to 10 µM | 0.001 to 10 µM |
| CC(=O)Nc1ccc(-c2ccnc(O[C@@H]3CCN(c4cn[nH]c(=O)c4Cl)C3)c2)c(F)c1 [P-0213, (R)-N-(4-(2-((1-(5-chloro-6-oxo-1,6-dihydropyridazin-4-yl)pyrrolidin-3-yl)oxy)pyridin-4-yl)-3-fluorophenyl)acetamide] | 0.001 to 10 µM | 0.001 to 10 µM |
| O=C(Nc1ccc(-c2ccnc(O[C@@H]3CCN(c4cn[nH]c(=O)c4Cl)C3)c2)c(F)c1)c1ccccc1 [P-0214, (R)-N-(4-(2-((1-(5-chloro-6-oxo-1,6-dihydropyridazin-4-yl)pyrrolidin-3-yl)oxy)pyridin-4-yl)-3-fluorophenyl)benzamide] | 0.001 to 10 µM | 0.001 to 10 µM |
| O=c1[nH]ncc(N2CC[C@@H](Oc3cc(-c4ccnc(O[C@@H]5CCN(c6cn[nH]c(=O)c6Cl)C5)c4)ccn3)C2)c1Cl [P-0215, 5,5′-((3R,3′R)-([4,4′-bipyridine]-2,2′-diylbis(oxy))bis(pyrrolidine-3,1-diyl))bis(4-chloropyridazin-3(2H)-one)] | 0.001 to 10 µM | 10 to 100 µM |
| CCCNS(=O)(=O)c1ccc(-c2cc(F)nc(O[C@@H]3CCN(c4cn[nH]c(=O)c4Cl)C3)c2)c(C)c1 [P-0216, (R)-4-(2-((1-(5-chloro-6-oxo-1,6-dihydropyridazin-4-yl)pyrrolidin-3-yl)oxy)-6-fluoropyridin-4-yl)-3-methyl-N-propylbenzenesulfonamide] | 0.001 to 10 µM | 0.001 to 10 µM |
| Cc1cc(S(=O)(=O)NC2CC2)ccc1-c1cc(F)nc(O[C@@H]2CCN(c3cn[nH]c(=O)c3Cl)C2)c1 [P-0217, (R)-4-(2-((1-(5-chloro-6-oxo-1,6-dihydropyridazin-4-yl)pyrrolidin-3-yl)oxy)-6-fluoropyridin-4-yl)-N-cyclopropyl-3-methylbenzenesulfonamide] | 0.001 to 10 µM | 0.001 to 10 µM |
| COC(=O)Cc1ccc(-c2ccnc(O[C@@H]3CCN(c4cn[nH]c(=O)c4Cl)C3)c2)c(F)c1 [P-0218, methyl (R)-2-(4-(2-((1-(5-chloro-6-oxo-1,6-dihydropyridazin-4-yl)pyrrolidin-3-yl)oxy)pyridin-4-yl)-3-fluorophenyl)acetate] | 0.001 to 10 µM | 0.001 to 10 µM |
| O=C(O)Cc1ccc(-c2ccnc(O[C@@H]3CCN(c4cn[nH]c(=O)c4Cl)C3)c2)c(F)c1 [P-0219, (R)-2-(4-(2-((1-(5-chloro-6-oxo-1,6-dihydropyridazin-4-yl)pyrrolidin-3-yl)oxy)pyridin-4-yl)-3-fluorophenyl)acetic acid] | 0.001 to 10 µM | 10 to 100 µM |
| Nc1ccc(-c2ccnc(O[C@@H]3CCN(c4cn[nH]c(=O)c4Cl)C3)c2)c(F)c1 [P-0220, (R)-5-(3-((4-(4-amino-2-fluorophenyl)pyridin-2-yl)oxy)pyrrolidin-1-yl)-4-chloropyridazin-3(2H)-one] | 0.001 to 10 µM | 0.001 to 10 µM |
| O=c1[nH]ncc(N2CC[C@@H](Oc3cc(N4CCC(NS(=O)(=O)C5CC5)CC4)ccn3)C2)c1Cl [P-0221, (R)-N-(1-(2-((1-(5-chloro-6-oxo-1,6-dihydropyridazin-4-yl)pyrrolidin-3-yl)oxy)pyridin-4-yl)piperidin-4-yl)cyclopropanesulfonamide] | 0.001 to 10 µM | 0.001 to 10 µM |
| O=C(NC1CCN(c2ccnc(O[C@@H]3CCN(c4cn[nH]c(=O)c4Cl)C3)c2)CC1)C1CC1 [P-0222, (R)-N-(1-(2-((1-(5-chloro-6-oxo-1,6-dihydropyridazin-4-yl)pyrrolidin-3-yl)oxy)pyridin-4-yl)piperidin-4-yl)cyclopropanecarboxamide] | 0.001 to 10 µM | 0.001 to 10 µM |
| CCCNS(=O)(=O)c1ccc(-c2ccnc(O[C@@H]3CCN(c4cn[nH]c(=O)c4Cl)C3)c2)cc1 [P-0223, (R)-4-(2-((1-(5-chloro-6-oxo-1,6-dihydropyridazin-4-yl)pyrrolidin-3-yl)oxy)pyridin-4-yl)-N-propylbenzenesulfonamide] | 0.001 to 10 µM | 0.001 to 10 µM |
| Cc1cc(S(=O)(=O)NC2CC2)cc(F)c1-c1ccnc(O[C@@H]2CCN(c3cn[nH]c(=O)c3Cl)C2)c1 [P-0224, (R)-4-(2-((1-(5-chloro-6-oxo-1,6-dihydropyridazin-4-yl)pyrrolidin-3-yl)oxy)pyridin-4-yl)-N-cyclopropyl-3-fluoro-5-methylbenzenesulfonamide] | 0.001 to 10 µM | 0.001 to 10 µM |
